Measured values as given in patent US8293979B2, “Weed controller metabolism proteins, genes, thereof and use of the same” (Sumitomo Chemical Company, Limited, priority 2001, dated 2012).

Tests used:
[1] = tested on: present invention protein (A11); assay: Metabolism of compounds by the present invention protein (A11), reaction solution, HPLC; assay type: in vitro ADME, Streptomyces nogalator IFO13445; conditions: 12.5 ppm of compound, components A, B, C, 20 μl supernatant fraction of Example 32(2), 30° C. for 10 minutes
Protocol: There was prepared 100 μl of a reaction solution of 50 mM potassium phosphate buffer (pH7.0) containing 5 ppm of compound (XII), 3 mM of […] (hereinafter, referred to as “component A”) (Oriental Yeast Company), 1 mg/ml of a ferredoxin derived from spinach (hereinafter referred to as “component B”) (Sigma Company), 0.15 U/ml of ferredoxin reductase (hereinafter, referred to as “component C”) (Sigma Company) and 20 μl of the supernatant fraction recovered in Example 4(2). The reaction solution was maintained at 30° C. for 10 minutes. Further, there was prepared and maintained similarly 100 μl of a reaction solution of a 50 mM potassium phosphate buffer (pH 7.0) having no addition of at least one component utilized in the composition of the above reaction solution, selected from component A, component B, component C and the supernatant fraction prepared in Example 4(2). Ten microliters (10 μl) of 2N HCl and 500 μl of ethyl acetate were added and mixed into each of the reaction solutions after the maintenance. The resulting reaction solutions were centrifuged at 8,000×g to recover 490 μl of the ethyl acetate layer. After drying the ethyl acetate layers under reduced pressure, the residue was dissolved in 100 μl of 50 mM of potassium phosphate buffer (pH7.0). Forty microliters (40 μl) of the fraction solutions (hereinafter, the fraction solution derived from the reaction solution containing component A, component B, component C and 20 μl of supernatant fraction recovered in Example 4(2) is referred to as “(XII) metabolism solution (A1);” further, the fraction solution derived from the reaction solution containing no component A, no component B, no component C and no supernatant fraction recovered in Example 4(2) is referred to as “(XII) control solution (A1)”) were analyzed on a HPLC. Compared to the concentration of compound (XII) detected from (XII) control solution (A1), the concentration of compound (XII) detected from (XII) metabolism solution (A1) was lower. Further a peak, which was not detected from the (XII) control solution (A1), was detected from the (XII) metabolism solution (A1). Mass spectrometry was conducted for the compound contained in such a peak. […]
Other than utilizing 20 μl of the supernatant fraction recovered in Example 32(2) instead of 20 μl of the supernatant fraction recovered in Example 4(2), the reaction solutions were prepared and maintained in accordance with the method described in Example 41(2). […] Compared to the concentration of compound (XII) detected from (XII) control solution (A11), the concentration of compound (XII) detected from (XII) metabolism solution (A11) was lower. Further a peak, which was not detected from the (XII) control solution (A11), was detected from the (XII) metabolism solution (A11). […]

[2] = tested on: present invention protein (A1); assay: Metabolism of compounds by the present invention protein (A1), reaction solution, HPLC; assay type: in vitro ADME, Streptomyces phaeochromogenes IFO12898; conditions: 12.5 ppm of compound, components A, B, C, 20 μl supernatant fraction of Example 4(2), 30° C. for 10 minutes
Protocol: There was prepared 100 μl of a reaction solution of 50 mM potassium phosphate buffer (pH7.0) containing 5 ppm of compound (XII), 3 mM of […] (hereinafter, referred to as “component A”) (Oriental Yeast Company), 1 mg/ml of a ferredoxin derived from spinach (hereinafter referred to as “component B”) (Sigma Company), 0.15 U/ml of ferredoxin reductase (hereinafter, referred to as “component C”) (Sigma Company) and 20 μl of the supernatant fraction recovered in Example 4(2). The reaction solution was maintained at 30° C. for 10 minutes. Further, there was prepared and maintained similarly 100 μl of a reaction solution of a 50 mM potassium phosphate buffer (pH 7.0) having no addition of at least one component utilized in the composition of the above reaction solution, selected from component A, component B, component C and the supernatant fraction prepared in Example 4(2). Ten microliters (10 μl) of 2N HCl and 500 μl of ethyl acetate were added and mixed into each of the reaction solutions after the maintenance. The resulting reaction solutions were centrifuged at 8,000×g to recover 490 μl of the ethyl acetate layer. After drying the ethyl acetate layers under reduced pressure, the residue was dissolved in 100 μl of 50 mM of potassium phosphate buffer (pH7.0). Forty microliters (40 μl) of the fraction solutions (hereinafter, the fraction solution derived from the reaction solution containing component A, component B, component C and 20 μl of supernatant fraction recovered in Example 4(2) is referred to as “(XII) metabolism solution (A1);” further, the fraction solution derived from the reaction solution containing no component A, no component B, no component C and no supernatant fraction recovered in Example 4(2) is referred to as “(XII) control solution (A1)”) were analyzed on a HPLC. Compared to the concentration of compound (XII) detected from (XII) control solution (A1), the concentration of compound (XII) detected from (XII) metabolism solution (A1) was lower. Further a peak, which was not detected from the (XII) control solution (A1), was detected from the (XII) metabolism solution (A1). Mass spectrometry was conducted for the compound contained in such a peak. The mass of the compound contained in such a peak was 14 smaller than the mass of compound (XII).
Other than utilizing 5 ppm of compound (XIII) instead of 5 ppm of compound (XII), reaction solutions were prepared and maintained similarly to the method described in Example 41(2). […] Compared to the concentration of compound (XIII) detected from (XIII) control solution (A1), the concentration of compound (XIII) detected from (XIII) metabolism solution (A1) was lower. Further a peak, which was not detected from the (XIII) control solution (A1), was detected from the (XIII) metabolism solution (A1). […]

[3] = tested on: present invention protein (A1); assay type: in vitro ADME, Streptomyces phaeochromogenes IFO12898; conditions: E. coli JM109/pKSN657F cell suspension, compound at 100 ppm, shaking at 30° C., ethyl acetate layer, HPLC
Protocol: E. coli JM109/pKSN657F was cultured overnight at 37° C. in 3 ml of TB medium containing 50 μg/ml of ampicillin. A milliliter (1 ml) of the obtained culture medium was transferred to 100 ml of TB medium containing 50 μg/ml of ampicillin and cultured at 26° C. When OD660 reached about 0.5, 5-aminolevulinic acid was added to the final concentration of 500 μM, and the culturing was continued. Thirty (30) minutes thereafter, IPTG was added to a final concentration of 1 mM, and there was further culturing for 20 hours.
The cells were recovered from the culture medium, washed with 0.1M tris-HCl buffer (pH7.5) and suspended in 10 ml of 0.1M Tris-HCl buffer containing 1% glucose. Compound (VI) was added to the obtained cell suspension to a final concentration of 100 ppm and that was incubated with shaking at 30° C. At each of 0 hours after and 1 day after the start of shaking, 2 ml of the cell suspension were fractioned. Fifty microliters (50 μl) of 2N HCl were added to each and those were extracted with 2 ml of ethyl acetate. The obtained ethyl acetate layers were analyzed on a HPLC under reaction condition 1. Compared to the concentration of compound (VI) detected from the ethyl acetate layer prepared from the cell suspension at 0 hours after the start of shaking, the concentration of compound (VI) detected from the ethyl acetate later prepared from the cell suspension at 1 day after the start of shaking was lower. Further a peak, which was not detected from the ethyl acetate layer prepared from the cell suspension at 0 hours after the start of shaking, was detected from the ethyl acetate layer prepared from the cell suspension at 1 day after the start of shaking Mass spectrometry of the compound contained in said peak was conducted. […]
Other than utilizing compound (VIII) instead of compound (VI), there was conducted in accordance with the method described in Example 41(6), a culturing of E. coli JM109/pKSN657F, preparation of the cell suspension solution, incubation with shaking of the cell suspension solution to which compound (VIII) was added, reagent preparation from the cell suspension solution and HPLC analysis of the reagents. Compared to the concentration of compound (VIII) detected from the ethyl acetate layer prepared from the cell suspension at 0 hours after the start of shaking, the concentration of compound (VIII) detected from the ethyl acetate layer prepared from the cell suspension at 1 day after the start of shaking was lower. Further two peaks, which were not detected from the ethyl acetate layer prepared from the cell suspension at 0 hours after the start of shaking, were detected from the ethyl acetate layer prepared from the cell suspension at 1 day after the start of shaking Mass spectrometry of the compounds contained in said peaks were conducted. […]

Barnyardgrass [4] = assay: Herbicidal activity test, foliage treatment; assay type: in vivo, Echinochloa crus-galli; parameters: key: 0: situations in which the condition of sprouting or vegetation at the time of examination of the plant utilized for the test was compared with and showed totally or substantially no difference with that of the untreated application; 10: situations in which the plant completely withered or the sprouting or vegetation was completely suppressed; conditions: sprayed onto the foliage of plants cultivated 10 days, investigated after 16 days in a greenhouse
Protocol: (§1) Soil was packed into a round plastic pot having a diameter of 10 cm and depth of 10 cm. Barnyardgrass, Blackgrass, Ivyleaf morningglory were seeded and cultivated in a greenhouse for 10 days. Five (5) parts of the test compound, 6 parts of sorpol3005X (Toho Chemical Company) and 89 parts of xylene were well mixed to produce an emulsion. A certain amount thereof was diluted with water containing 0.1% (v/v) of a sticking agent at a proportion of 1000 L for 1 hectare and was spread uniformly with a spray-gun onto the all sides of the foliage from above the plant cultivated in the above pot. After cultivating the plants for 16 days in a greenhouse, the herbicidal activity of the test compound was investigated.
(§2) In the above Tables 3 and 4, the strength of the herbicidal activity is shown stepwise as 0, 1, 2, 3, 4, 5, 6, 7, 8, 9, and 10.

Ivyleaf morningglory [5] = assay: Herbicidal activity test, soil surface treatment; assay type: in vivo, Ipomoea hederacea; parameters: key: 0: situations in which the condition of sprouting or vegetation at the time of examination of the plant utilized for the test was compared with and showed totally or substantially no difference with that of the untreated application; 10: situations in which the plant completely withered or the sprouting or vegetation was completely suppressed; conditions: 500 g/ha, sprayed onto the surface of the soil after seeding, investigated after 19 days in a greenhouse
Protocol: as §1, with “seeded.” for “seeded and cultivated in a greenhouse for 10 days.”, “surface” for “all sides”, “soil.” for “foliage from above the plant cultivated in the above pot.”, “19” for “16”, “activity” for “activity of the test compound”
as §2

Barnyardgrass [6] = assay: Herbicidal activity test, soil surface treatment; assay type: in vivo, Echinochloa crus-galli; parameters: key: 0: situations in which the condition of sprouting or vegetation at the time of examination of the plant utilized for the test was compared with and showed totally or substantially no difference with that of the untreated application; 10: situations in which the plant completely withered or the sprouting or vegetation was completely suppressed; conditions: 500 g/ha, sprayed onto the surface of the soil after seeding, investigated after 19 days in a greenhouse
Protocol: as §1, with “seeded.” for “seeded and cultivated in a greenhouse for 10 days.”, “surface” for “all sides”, “soil.” for “foliage from above the plant cultivated in the above pot.”, “19” for “16”, “activity” for “activity of the test compound”
as §2

Blackgrass [7] = assay: Herbicidal activity test, soil surface treatment; assay type: in vivo, Alopercurus myosuroides; parameters: key: 0: situations in which the condition of sprouting or vegetation at the time of examination of the plant utilized for the test was compared with and showed totally or substantially no difference with that of the untreated application; 10: situations in which the plant completely withered or the sprouting or vegetation was completely suppressed; conditions: 500 g/ha, sprayed onto the surface of the soil after seeding, investigated after 19 days in a greenhouse
Protocol: as §1, with “seeded.” for “seeded and cultivated in a greenhouse for 10 days.”, “surface” for “all sides”, “soil.” for “foliage from above the plant cultivated in the above pot.”, “19” for “16”, “activity” for “activity of the test compound”
as §2

Blackgrass [8] = assay: Herbicidal activity test, foliage treatment; assay type: in vivo, Alopercurus myosuroides; parameters: key: 0: situations in which the condition of sprouting or vegetation at the time of examination of the plant utilized for the test was compared with and showed totally or substantially no difference with that of the untreated application; 10: situations in which the plant completely withered or the sprouting or vegetation was completely suppressed; conditions: sprayed onto the foliage of plants cultivated 10 days, investigated after 16 days in a greenhouse
Protocol: as §1, §2

Ivyleaf morningglory [9] = assay: Herbicidal activity test, foliage treatment; assay type: in vivo, Ipomoea hederacea; parameters: key: 0: situations in which the condition of sprouting or vegetation at the time of examination of the plant utilized for the test was compared with and showed totally or substantially no difference with that of the untreated application; 10: situations in which the plant completely withered or the sprouting or vegetation was completely suppressed; conditions: sprayed onto the foliage of plants cultivated 10 days, investigated after 16 days in a greenhouse
Protocol: as §1, §2

Cn1c(C(F)(F)F)cc(=O)n(-c2c(F)cc(Cl)c3oc(C(=O)O)cc23)c1=O [compound (XVII)]
concentration of the compound detected from metabolism solution (A11) compared to control solution (A11) [1]: lower
concentration of the compound detected from metabolism solution (A1) compared to control solution (A1) [2]: lower

CCc1ccc(COc2ccc(-n3c(=O)cc(C(F)(F)F)n(C)c3=O)cc2)c(OC(C)C(=O)OC)c1 (stereo not shown) [compound (VI)]
concentration of the compound detected from the cell suspension at 1 day compared to 0 hours after the start of shaking [3]: lower

C[C@@H](Oc1cc(-n2c(=O)cc(C(F)(F)F)[nH]c2=O)c(F)cc1Cl)C(=O)O [compound (III)]
Herbicidal Activity Barnyardgrass (Barnyardgrass [4]; 125 g/ha): 0
Herbicidal Activity Barnyardgrass (Barnyardgrass [4]; 500 g/ha): 0
Herbicidal Activity Ivyleaf Morningglory (Ivyleaf morningglory [5]): 0
Herbicidal Activity Barnyardgrass (Barnyardgrass [6]): 0
Herbicidal Activity Blackgrass (Blackgrass [7]): 0
Herbicidal Activity Blackgrass (Blackgrass [8]; 125 g/ha): 0
Herbicidal Activity Blackgrass (Blackgrass [8]; 500 g/ha): 0
Herbicidal Activity Ivyleaf Morningglory (Ivyleaf morningglory [9]; 125 g/ha): 0
Herbicidal Activity Ivyleaf Morningglory (Ivyleaf morningglory [9]; 500 g/ha): 0

COC(=O)CO/C(C)=C(/Oc1cc(-n2c(=O)cc(C(F)(F)F)n(C)c2=O)c(F)cc1Cl)C(=O)O [compound (XVI)]
concentration of the compound detected from metabolism solution (A11) compared to control solution (A11) [1]: lower
concentration of the compound detected from metabolism solution (A1) compared to control solution (A1) [2]: lower

C#CCN1C(=O)COc2ccc(-n3c(=O)cc(C(F)(F)F)n(C)c3=O)cc21 [compound (XI)]
concentration of the compound detected from the cell suspension at 1 day compared to 0 hours after the start of shaking [3]: lower

COC(=O)C1(C)Cc2c(c(Cl)cc(F)c2-n2c(=O)cc(C(F)(F)F)n(C)c2=O)O1 (stereo not shown) [compound (VIII)]
concentration of the compound detected from the cell suspension at 1 day compared to 0 hours after the start of shaking [3]: lower
